How the values were obtained:
Assay in all cases: relative viability (nuclei count vs DMSO), 5 days (fraction); higher = more cells survive
TGX 221 + Palbociclib = compound: CC1=CN2C(=O)C=C(N=C2C(=C1)C(C)NC3=CC=CC=C3)N4CCOCC4 [TGX 221] + CC(=O)c1c(C)c2cnc(Nc3ccc(N4CCNCC4)cn3)nc2n(C2CCCC2)c1=O [Palbociclib] (partner 0.5 µM)
Outline: (§1)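 Dosing by pin tool came one day after lung cancer cell lines were seeded in 1536-well plates, using either one drug or a fixed anchor-drug dose plus five library-drug doses (not always all listed) in √10 steps. After 5 days, nuclei were counted on 4× images. Relative viability is treated-well nuclei count divided by vehicle-well nuclei count, and values are medians of duplicate plates.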

TGX 221 + Linsitinib = compound: CC1=CN2C(=O)C=C(N=C2C(=C1)C(C)NC3=CC=CC=C3)N4CCOCC4 [TGX 221] + C[C@]1(O)C[C@@H](c2nc(-c3ccc4ccc(-c5ccccc5)nc4c3)c3c(N)nccn32)C1 [Linsitinib] (partner 1 µM)
Outline: as §1

TGX 221 + Vorinostat = compound: CC1=CN2C(=O)C=C(N=C2C(=C1)C(C)NC3=CC=CC=C3)N4CCOCC4 [TGX 221] + O=C(CCCCCCC(=O)Nc1ccccc1)NO [Vorinostat] (partner 1 µM)
Outline: as §1

[1] = compound: O=C(CCCCCCNC(=O)c1cnc(N(c2ccccc2)c2ccccc2)nc1)NO [Ricolinostat] + C[C@]1(O)C[C@@H](c2nc(-c3ccc4ccc(-c5ccccc5)nc4c3)c3c(N)nccn32)C1 [Linsitinib] (partner 1 µM)
Outline: as §1

Cell Line	relative viability (TGX 221 + Palbociclib; first compound 0.08 µM)	relative viability (TGX 221 + Palbociclib; first compound 0.253 µM)	relative viability (TGX 221 + Palbociclib; first compound 0.8 µM)	relative viability (TGX 221 + Palbociclib; first compound 2.53 µM)	relative viability (TGX 221 + Palbociclib; first compound 8 µM)	relative viability (TGX 221 + Linsitinib; first compound 0.08 µM)	relative viability (TGX 221 + Linsitinib; first compound 0.253 µM)	relative viability (TGX 221 + Linsitinib; first compound 0.8 µM)	relative viability (TGX 221 + Linsitinib; first compound 2.53 µM)	relative viability (TGX 221 + Linsitinib; first compound 8 µM)	relative viability (TGX 221 + Vorinostat; first compound 0.08 µM)	relative viability (TGX 221 + Vorinostat; first compound 0.253 µM)	relative viability (TGX 221 + Vorinostat; first compound 0.8 µM)	relative viability (TGX 221 + Vorinostat; first compound 2.53 µM)	relative viability (TGX 221 + Vorinostat; first compound 8 µM)	relative viability ([1]; first compound 0.08 µM)	relative viability ([1]; first compound 0.253 µM)	relative viability ([1]; first compound 0.8 µM)	relative viability ([1]; first compound 2.53 µM)
LCLC-103H	0.472	0.471	0.469	0.424	0.495	1.11	1.12	0.93	0.846	1.2	0.761	0.806	0.708	0.647	0.766	0.925	1.06	1.09	1.11
LK-2	0.647	0.612	0.621	0.673	0.833	0.523	0.548	0.627	0.625	0.625	0.356	0.309	0.249	0.415	0.505	0.629	0.645	0.613	0.524
LOU-NH91	0.612	0.511	0.448	0.492	0.517	0.974	0.912	0.931	0.917	0.794	0.888	0.963	0.957	0.902	0.9	–	0.927	0.973	0.88
LU99A	0.383	0.344	0.373	0.405	0.366	0.478	0.481	0.512	0.536	0.492	0.431	0.514	0.588	0.356	0.529	0.495	0.473	0.455	0.419
LXF-289	0.595	0.628	0.612	0.641	0.568	0.956	0.965	0.98	0.931	1	0.77	0.757	0.732	0.714	0.771	0.93	0.956	0.966	0.962
NCI-H23	0.479	0.441	0.424	0.479	0.389	0.471	0.532	0.525	0.531	0.477	0.638	0.625	0.579	0.498	0.659	0.476	0.625	0.59	0.514
NCI-H322M	0.492	0.484	0.478	0.459	0.388	0.849	0.732	0.708	0.698	1.02	0.865	0.876	0.839	0.872	0.718	–	0.865	1.01	0.968
NCI-H358	0.116	0.118	0.149	0.116	0.125	0.757	0.684	0.732	0.65	0.588	0.746	0.663	0.71	0.668	0.602	0.513	0.782	0.808	0.763
NCI-H441	0.239	0.203	0.217	0.185	0.21	0.623	0.644	0.485	0.571	0.548	0.717	0.785	0.724	0.856	0.859	0.478	0.62	0.624	0.396
NCI-H460	0.101	0.179	0.159	0.228	0.168	0.677	0.641	0.693	0.622	0.592	0.654	0.632	0.655	0.691	0.595	0.468	0.774	0.731	0.58
NCI-H520	0.156	0.139	0.146	0.166	0.132	0.929	0.767	0.779	0.679	0.63	0.599	0.564	0.627	0.493	0.53	–	0.991	1.02	0.869
NCI-H647	0.296	0.297	0.283	0.232	0.275	0.915	0.948	1	0.749	0.611	0.466	0.442	0.457	0.547	0.665	1.13	1.23	1.16	0.698
NCI-H650	0.303	0.294	0.307	0.32	0.273	0.732	0.885	0.779	0.772	0.713	0.425	0.488	0.459	0.542	0.401	–	0.853	0.563	0.439
NCI-H661	0.427	0.43	0.396	0.406	0.376	0.486	0.472	0.363	0.457	0.362	0.794	0.755	0.78	0.925	0.785	–	0.53	0.792	0.779
NCI-H727	0.643	0.518	0.667	0.679	0.602	0.406	0.29	0.264	0.269	0.403	1.09	1.06	1.14	1.09	1.19	0.212	0.269	0.333	0.354
NCI-H838	0.213	0.187	0.19	0.188	0.179	0.917	0.819	0.841	0.836	0.618	0.7	0.67	0.635	0.668	0.589	0.944	1.01	1.1	0.9
NCI-H1355	0.366	0.348	0.372	0.338	0.302	0.743	0.666	0.621	0.453	0.546	0.614	0.577	0.591	0.629	0.558	–	0.79	0.735	0.716

Cell Line	relative viability (TGX 221 + Palbociclib; first compound 0.08 µM)	relative viability (TGX 221 + Palbociclib; first compound 0.253 µM)	relative viability (TGX 221 + Palbociclib; first compound 0.8 µM)	relative viability (TGX 221 + Palbociclib; first compound 2.53 µM)	relative viability (TGX 221 + Palbociclib; first compound 8 µM)	relative viability (TGX 221 + Linsitinib; first compound 0.08 µM)	relative viability (TGX 221 + Linsitinib; first compound 0.253 µM)	relative viability (TGX 221 + Linsitinib; first compound 0.8 µM)	relative viability (TGX 221 + Linsitinib; first compound 2.53 µM)	relative viability (TGX 221 + Linsitinib; first compound 8 µM)	relative viability (TGX 221 + Vorinostat; first compound 0.08 µM)	relative viability (TGX 221 + Vorinostat; first compound 0.253 µM)	relative viability (TGX 221 + Vorinostat; first compound 0.8 µM)	relative viability (TGX 221 + Vorinostat; first compound 2.53 µM)	relative viability (TGX 221 + Vorinostat; first compound 8 µM)	relative viability ([1]; first compound 0.08 µM)	relative viability ([1]; first compound 0.253 µM)	relative viability ([1]; first compound 0.8 µM)	relative viability ([1]; first compound 2.53 µM)
NCI-H1395	0.609	0.537	0.51	0.467	0.487	1	0.865	1.04	0.598	0.665	0.601	0.537	0.553	0.557	0.664	–	1.2	1.05	1.04
NCI-H1437	0.294	0.317	0.324	0.276	0.295	0.973	0.958	1.04	0.936	0.629	0.888	0.922	0.858	0.852	0.779	0.805	1.03	0.98	0.647
NCI-H1651	0.525	0.465	0.505	0.489	0.44	0.851	0.67	0.723	0.726	0.533	0.525	0.646	0.527	0.517	0.581	0.72	0.871	0.93	0.816
NCI-H1666	0.679	0.599	0.638	0.667	0.674	0.635	0.597	0.676	0.59	0.526	0.958	0.963	1.06	1.06	1.1	0.799	0.806	0.745	0.468
NCI-H1734	0.235	0.332	0.351	0.317	0.289	0.801	0.747	0.802	0.647	0.616	0.675	0.67	0.787	0.702	0.764	0.737	0.843	0.961	1
NCI-H1755	0.36	0.422	0.385	0.421	0.436	0.956	0.935	0.835	0.629	0.557	0.677	0.681	0.775	0.718	0.667	0.901	–	0.994	0.966
NCI-H1793	0.282	0.277	0.271	0.273	0.223	0.768	0.616	0.531	0.467	0.474	0.612	0.521	0.589	0.592	0.588	–	0.802	0.743	0.81
NCI-H1915	0.491	0.497	0.536	0.498	0.473	1.02	1.12	1.16	1.11	1.04	0.436	0.486	0.489	0.437	0.554	1.01	1.04	1.02	1.01
NCI-H1944	–	0.327	0.332	0.277	0.245	1.07	1.03	1.04	0.921	0.669	–	0.547	0.488	0.476	0.488	0.976	1.11	1.1	0.895
NCI-H1975	0.532	0.558	0.629	0.452	0.526	0.843	0.778	0.902	0.943	0.697	0.749	0.656	0.689	0.718	0.607	0.998	0.878	–	0.835
NCI-H1993	0.54	0.607	0.54	0.519	0.459	0.806	0.774	0.701	0.641	0.735	0.821	0.611	0.742	0.788	0.724	0.696	0.772	0.665	0.778
NCI-H2009	0.216	0.191	0.118	0.175	0.166	1.22	1.13	1.03	0.994	0.809	0.731	0.687	0.72	0.819	0.559	1.08	1.15	1.09	0.952
NCI-H2023	0.328	0.337	0.269	0.342	0.212	0.546	0.469	0.395	0.321	0.218	0.552	0.701	0.759	0.495	0.502	0.612	0.614	0.627	0.625
NCI-H2085	0.506	0.481	0.43	0.35	0.291	0.947	0.774	0.673	0.309	0.408	0.86	0.667	0.562	0.416	0.436	–	0.868	0.922	0.865
NCI-H2087	0.214	0.234	0.237	0.21	0.248	1.07	1.05	1.16	1.03	0.94	0.814	0.855	0.483	0.664	0.932	0.896	0.986	1.01	0.847
NCI-H2126	0.348	0.341	0.342	0.354	0.308	0.632	0.604	0.579	0.576	0.593	0.832	0.741	0.768	0.615	0.717	0.539	0.724	0.7	0.627
NCI-H2228	0.692	0.689	0.989	0.675	0.719	0.411	0.624	0.625	0.29	0.344	0.462	0.324	0.599	0.575	0.302	0.455	0.451	0.722	0.814

Source: the supplement of paper PMC10307832
